Reference: ChEMBL document CHEMBL3351812, “Discovery and SAR of a novel series of metabotropic glutamate receptor 5 positive allosteric modulators with high ligand efficiency” (Bioorg Med Chem Lett, 2014)
Calls of active or inactive are those of the source. No cut-off for these calls is given here.

What was measured:
[1] = biological target: Metabotropic glutamate receptor 5 (Rattus norvegicus) (UniProt P31424); assay: Positive allosteric modulation of rat mGlu5 receptor expressed in HEK293 cells relative to glutamate; format: cell-based; design: concentration or dose not given beside the values
Chain of Metabotropic glutamate receptor 5 (Rattus norvegicus) (P31424 21-1203 limits assumed): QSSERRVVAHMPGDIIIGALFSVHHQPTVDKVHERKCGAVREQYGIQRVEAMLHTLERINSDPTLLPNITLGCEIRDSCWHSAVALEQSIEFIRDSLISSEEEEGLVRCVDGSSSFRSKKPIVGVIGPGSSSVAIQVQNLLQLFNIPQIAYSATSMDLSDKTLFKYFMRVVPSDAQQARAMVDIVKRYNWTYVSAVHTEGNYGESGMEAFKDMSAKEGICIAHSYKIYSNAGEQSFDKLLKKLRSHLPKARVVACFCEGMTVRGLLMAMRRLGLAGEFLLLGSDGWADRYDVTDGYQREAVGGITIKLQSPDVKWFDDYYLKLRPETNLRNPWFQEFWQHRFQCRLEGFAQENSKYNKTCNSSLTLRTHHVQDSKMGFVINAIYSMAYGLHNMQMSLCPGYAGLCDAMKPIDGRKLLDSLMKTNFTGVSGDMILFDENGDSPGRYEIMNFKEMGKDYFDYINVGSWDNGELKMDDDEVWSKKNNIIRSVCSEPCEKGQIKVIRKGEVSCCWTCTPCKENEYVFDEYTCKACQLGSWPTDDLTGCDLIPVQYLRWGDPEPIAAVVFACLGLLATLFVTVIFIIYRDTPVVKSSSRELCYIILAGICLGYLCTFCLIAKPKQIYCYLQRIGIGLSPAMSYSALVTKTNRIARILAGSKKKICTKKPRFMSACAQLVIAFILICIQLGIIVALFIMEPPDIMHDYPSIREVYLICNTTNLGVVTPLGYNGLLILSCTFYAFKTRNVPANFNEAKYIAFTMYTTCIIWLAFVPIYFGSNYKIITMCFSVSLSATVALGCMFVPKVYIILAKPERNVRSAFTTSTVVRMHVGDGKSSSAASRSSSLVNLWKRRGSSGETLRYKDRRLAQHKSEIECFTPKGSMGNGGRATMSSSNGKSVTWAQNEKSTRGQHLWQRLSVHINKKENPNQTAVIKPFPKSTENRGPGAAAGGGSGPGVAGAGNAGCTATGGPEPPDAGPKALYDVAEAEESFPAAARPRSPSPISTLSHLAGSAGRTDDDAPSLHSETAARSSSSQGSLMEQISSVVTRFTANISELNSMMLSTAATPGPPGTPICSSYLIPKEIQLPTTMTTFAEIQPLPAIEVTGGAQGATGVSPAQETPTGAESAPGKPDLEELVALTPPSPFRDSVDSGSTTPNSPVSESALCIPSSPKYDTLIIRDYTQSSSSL

[2] = biological target: Metabotropic glutamate receptor 5 (Rattus norvegicus, UniProt P31424); assay: (§1) Positive allosteric modulation of rat mGlu5 receptor expressed in HEK293 cells; format: cell-based
Chain of Metabotropic glutamate receptor 5 (P31424 whole entry): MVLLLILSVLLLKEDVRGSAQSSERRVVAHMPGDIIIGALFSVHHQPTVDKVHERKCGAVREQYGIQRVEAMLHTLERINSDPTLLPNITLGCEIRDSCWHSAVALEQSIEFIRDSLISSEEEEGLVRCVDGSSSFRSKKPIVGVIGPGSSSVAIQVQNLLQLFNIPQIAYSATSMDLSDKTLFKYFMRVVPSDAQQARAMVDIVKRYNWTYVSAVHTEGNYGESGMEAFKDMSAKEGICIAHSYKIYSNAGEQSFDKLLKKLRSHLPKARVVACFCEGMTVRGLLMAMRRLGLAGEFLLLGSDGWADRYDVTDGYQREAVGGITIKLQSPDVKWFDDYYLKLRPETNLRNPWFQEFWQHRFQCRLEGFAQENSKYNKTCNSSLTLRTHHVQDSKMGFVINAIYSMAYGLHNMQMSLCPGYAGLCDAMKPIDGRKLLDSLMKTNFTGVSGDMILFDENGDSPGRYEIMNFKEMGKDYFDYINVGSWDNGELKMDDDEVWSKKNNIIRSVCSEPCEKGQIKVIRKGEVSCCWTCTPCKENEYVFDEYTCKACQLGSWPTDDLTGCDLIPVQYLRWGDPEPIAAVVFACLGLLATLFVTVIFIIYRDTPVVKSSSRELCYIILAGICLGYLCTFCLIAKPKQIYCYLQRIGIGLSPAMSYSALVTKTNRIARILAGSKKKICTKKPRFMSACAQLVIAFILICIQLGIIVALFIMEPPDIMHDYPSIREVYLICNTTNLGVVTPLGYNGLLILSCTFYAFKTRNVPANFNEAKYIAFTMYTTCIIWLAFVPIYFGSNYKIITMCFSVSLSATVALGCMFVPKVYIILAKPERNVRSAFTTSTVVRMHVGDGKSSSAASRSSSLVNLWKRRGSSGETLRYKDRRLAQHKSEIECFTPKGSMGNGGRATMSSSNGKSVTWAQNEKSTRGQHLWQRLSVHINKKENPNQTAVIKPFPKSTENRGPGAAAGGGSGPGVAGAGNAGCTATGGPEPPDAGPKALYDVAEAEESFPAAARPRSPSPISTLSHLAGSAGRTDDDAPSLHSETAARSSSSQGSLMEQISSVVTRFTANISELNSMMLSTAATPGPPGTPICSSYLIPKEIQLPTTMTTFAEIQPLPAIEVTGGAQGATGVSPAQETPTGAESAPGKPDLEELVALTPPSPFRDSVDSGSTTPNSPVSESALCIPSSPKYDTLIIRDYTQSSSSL

[3] = biological target: Metabotropic glutamate receptor 2 (Rattus norvegicus) (UniProt P31421); assay: Positive allosteric modulation of rat mGlu2 receptor
Plasma [4] = assay: Stability in rat plasma at 37 degC after 4 hrs; format: ADME, cell-free
[5] = biological target: Metabotropic glutamate receptor 8 (Homo sapiens) (UniProt O00222); assay: Positive allosteric modulation of human mGlu8 receptor
Chain of Metabotropic glutamate receptor 8 (Homo sapiens) (O00222 whole entry): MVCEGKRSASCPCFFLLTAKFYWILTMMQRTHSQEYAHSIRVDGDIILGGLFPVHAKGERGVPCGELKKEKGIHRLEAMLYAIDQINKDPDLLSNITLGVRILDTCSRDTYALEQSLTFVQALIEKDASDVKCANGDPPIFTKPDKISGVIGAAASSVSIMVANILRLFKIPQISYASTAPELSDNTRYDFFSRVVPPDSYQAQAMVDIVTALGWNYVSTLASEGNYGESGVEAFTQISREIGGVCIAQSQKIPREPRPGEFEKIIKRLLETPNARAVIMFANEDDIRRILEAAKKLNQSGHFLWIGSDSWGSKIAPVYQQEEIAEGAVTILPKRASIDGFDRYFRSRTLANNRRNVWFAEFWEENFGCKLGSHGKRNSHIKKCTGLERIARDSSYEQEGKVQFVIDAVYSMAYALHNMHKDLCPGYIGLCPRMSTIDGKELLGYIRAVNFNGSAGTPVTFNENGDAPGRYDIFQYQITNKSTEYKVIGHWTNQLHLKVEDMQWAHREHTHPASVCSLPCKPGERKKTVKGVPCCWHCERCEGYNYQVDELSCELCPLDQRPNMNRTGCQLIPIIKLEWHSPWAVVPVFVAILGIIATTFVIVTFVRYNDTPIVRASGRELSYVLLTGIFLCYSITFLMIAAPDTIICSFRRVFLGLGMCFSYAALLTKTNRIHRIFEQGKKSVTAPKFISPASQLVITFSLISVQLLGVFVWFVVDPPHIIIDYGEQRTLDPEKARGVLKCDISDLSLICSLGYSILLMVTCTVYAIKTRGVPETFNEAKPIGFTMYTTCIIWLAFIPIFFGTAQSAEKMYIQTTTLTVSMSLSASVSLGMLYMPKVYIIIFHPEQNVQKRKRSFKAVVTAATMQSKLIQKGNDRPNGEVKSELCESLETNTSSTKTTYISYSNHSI

[6] = biological target: Metabotropic glutamate receptor 6 (Homo sapiens) (UniProt O15303); assay: Positive allosteric modulation of human mGlu6 receptor
[7] = biological target: Metabotropic glutamate receptor 8 (Rattus norvegicus) (UniProt P70579); assay: Positive allosteric modulation of rat mGlu8 receptor
[8] = biological target: Metabotropic glutamate receptor 3 (Homo sapiens) (UniProt Q14832); assay: Positive allosteric modulation of human mGlu3 receptor
[9] = biological target: Metabotropic glutamate receptor 7 (Rattus norvegicus) (UniProt P35400); assay: Positive allosteric modulation of rat mGlu7 receptor
Chain of Metabotropic glutamate receptor 7 (Rattus norvegicus) (P35400 whole entry): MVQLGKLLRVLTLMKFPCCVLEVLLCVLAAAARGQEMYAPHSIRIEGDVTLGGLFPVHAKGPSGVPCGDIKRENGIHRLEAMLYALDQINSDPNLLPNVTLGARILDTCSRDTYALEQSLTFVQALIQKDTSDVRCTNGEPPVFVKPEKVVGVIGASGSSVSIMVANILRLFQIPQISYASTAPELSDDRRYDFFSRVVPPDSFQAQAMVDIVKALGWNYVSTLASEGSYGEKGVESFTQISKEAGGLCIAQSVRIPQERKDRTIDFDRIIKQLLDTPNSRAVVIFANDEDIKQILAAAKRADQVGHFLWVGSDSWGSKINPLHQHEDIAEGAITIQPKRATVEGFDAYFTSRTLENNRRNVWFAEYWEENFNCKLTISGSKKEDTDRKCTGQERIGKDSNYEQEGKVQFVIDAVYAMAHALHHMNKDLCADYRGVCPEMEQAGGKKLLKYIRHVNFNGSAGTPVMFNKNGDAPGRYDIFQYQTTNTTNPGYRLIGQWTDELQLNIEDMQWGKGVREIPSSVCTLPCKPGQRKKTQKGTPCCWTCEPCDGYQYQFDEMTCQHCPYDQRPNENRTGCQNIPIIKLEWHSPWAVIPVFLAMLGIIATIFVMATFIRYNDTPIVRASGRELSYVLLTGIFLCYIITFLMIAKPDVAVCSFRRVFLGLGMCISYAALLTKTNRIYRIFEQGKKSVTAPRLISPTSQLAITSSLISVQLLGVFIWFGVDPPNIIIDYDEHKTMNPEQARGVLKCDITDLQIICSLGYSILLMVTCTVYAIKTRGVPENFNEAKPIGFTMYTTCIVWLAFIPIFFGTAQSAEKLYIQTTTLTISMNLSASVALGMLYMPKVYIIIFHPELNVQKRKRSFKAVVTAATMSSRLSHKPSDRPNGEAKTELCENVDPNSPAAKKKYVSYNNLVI

[10] = (§2) Fraction unbound in human plasma; format: ADME, cell-free
[11] = biological target: Metabotropic glutamate receptor 6 (Rattus norvegicus) (UniProt P35349); assay: Positive allosteric modulation of rat mGlu6 receptor
Plasma [12] = assay: Stability in human plasma at 37 degC after 4 hrs; format: ADME, cell-free
Cytochrome P450 2D6 = Cytochrome P450 2D6 (Homo sapiens, UniProt P10635); assay: Inhibition of CYP2D6 (unknown origin); format: ADME
[13] = biological target: Metabotropic glutamate receptor 1 (Rattus norvegicus) (UniProt P23385); assay: Positive allosteric modulation of rat mGlu1 receptor
[14] = (§3) Fraction unbound in rat plasma; format: ADME, cell-free
[15] = biological target: Metabotropic glutamate receptor 7 (Homo sapiens) (UniProt Q14831); assay: Positive allosteric modulation of human mGlu7 receptor
Chain of Metabotropic glutamate receptor 7 (Homo sapiens) (Q14831 whole entry): as the sequence (P35400 whole entry) above, with G5R, V27A, H454N, T488S, S520A, N578D counted along it

[16] = biological target: Metabotropic glutamate receptor 2 (Homo sapiens) (UniProt Q14416); assay: Positive allosteric modulation of human mGlu2 receptor
Chain of Metabotropic glutamate receptor 2 (Homo sapiens) (Q14416 19-872 limits assumed): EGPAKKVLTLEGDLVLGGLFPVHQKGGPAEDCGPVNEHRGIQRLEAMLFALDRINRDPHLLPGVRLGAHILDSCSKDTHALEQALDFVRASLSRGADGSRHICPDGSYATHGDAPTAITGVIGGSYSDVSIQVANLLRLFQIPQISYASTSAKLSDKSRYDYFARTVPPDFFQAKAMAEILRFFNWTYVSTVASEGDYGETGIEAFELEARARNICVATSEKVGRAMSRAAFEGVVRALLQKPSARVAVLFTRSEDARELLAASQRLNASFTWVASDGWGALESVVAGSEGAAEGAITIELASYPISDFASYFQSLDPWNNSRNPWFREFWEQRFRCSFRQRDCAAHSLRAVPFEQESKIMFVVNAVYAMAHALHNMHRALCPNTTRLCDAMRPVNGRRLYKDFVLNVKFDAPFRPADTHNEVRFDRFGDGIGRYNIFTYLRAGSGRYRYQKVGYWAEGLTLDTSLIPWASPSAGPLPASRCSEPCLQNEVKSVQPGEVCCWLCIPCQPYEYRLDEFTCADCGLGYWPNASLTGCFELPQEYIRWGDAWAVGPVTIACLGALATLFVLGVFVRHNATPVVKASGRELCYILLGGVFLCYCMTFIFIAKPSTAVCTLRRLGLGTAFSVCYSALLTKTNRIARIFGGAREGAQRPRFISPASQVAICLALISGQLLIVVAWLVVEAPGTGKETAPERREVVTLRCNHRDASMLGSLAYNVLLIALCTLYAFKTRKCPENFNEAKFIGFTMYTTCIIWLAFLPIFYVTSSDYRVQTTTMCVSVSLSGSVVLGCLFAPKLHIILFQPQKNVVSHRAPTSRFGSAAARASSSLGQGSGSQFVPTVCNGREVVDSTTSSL

[17] = biological target: Metabotropic glutamate receptor 1 (Homo sapiens) (UniProt Q13255); assay: Positive allosteric modulation of human mGlu1 receptor
Cytochrome P450 2C9 = Cytochrome P450 2C9 (Homo sapiens, UniProt P11712); assay: Inhibition of CYP2C9 (unknown origin); format: ADME
Cytochrome P450 3A4 = Cytochrome P450 3A4 (Homo sapiens, UniProt P08684); assay: Inhibition of CYP3A4 (unknown origin); format: ADME
[18] = biological target: Metabotropic glutamate receptor 3 (Rattus norvegicus) (UniProt P31422); assay: Positive allosteric modulation of rat mGlu3 receptor
Cytochrome P450 1A2 = biological target: T1, Cytochrome P450 1A2 (Homo sapiens, UniProt P05177); assay: Inhibition of CYP1A2 (unknown origin); format: ADME
T1 sequence (P05177 whole entry): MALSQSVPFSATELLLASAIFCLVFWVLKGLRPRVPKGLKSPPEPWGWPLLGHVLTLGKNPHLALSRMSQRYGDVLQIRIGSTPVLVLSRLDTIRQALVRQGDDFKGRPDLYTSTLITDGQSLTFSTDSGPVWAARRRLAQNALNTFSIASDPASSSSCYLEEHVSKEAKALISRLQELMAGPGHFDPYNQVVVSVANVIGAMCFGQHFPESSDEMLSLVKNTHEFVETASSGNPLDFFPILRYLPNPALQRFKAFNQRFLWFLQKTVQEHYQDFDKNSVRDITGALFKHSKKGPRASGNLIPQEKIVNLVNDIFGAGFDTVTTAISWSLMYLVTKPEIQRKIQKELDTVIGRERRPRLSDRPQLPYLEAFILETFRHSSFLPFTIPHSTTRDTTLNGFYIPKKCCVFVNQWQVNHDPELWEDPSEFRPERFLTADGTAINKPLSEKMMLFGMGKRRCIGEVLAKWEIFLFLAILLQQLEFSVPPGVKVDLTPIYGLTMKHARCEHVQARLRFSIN

[19] = biological target: Metabotropic glutamate receptor 5 (Rattus norvegicus) (UniProt P31424); assay: as §1; format: cell-based
Plasma [20] = assay: as §2; format: ADME, cell-free
Plasma [21] = assay: as §3; format: ADME, cell-free

Row | Compound | Activity [1] [%] | EC50 [2] [nM] | other results
1 | Fc1cccc(CNC2CCCn3nc(COc4ccccc4)cc32)c1 (stereo not drawn) | 75 | 275 | –
2 | c1ccc(CNC2CCCn3nc(OCc4ccccc4)cc32)cc1 (stereo not drawn) | 48 | 618 | –
3 | O=C1c2cc(COc3ccccc3)nn2CCC1Cc1ccccc1 (stereo not drawn) | 73 | 124 | –
4 | O=C1CCCn2nc(COc3ccccc3)cc21 | 66 | 129 | Activity [3]: > 10 µM; Stability (Plasma [4]): Stable; Activity [5]: > 10 µM; Activity [6]: > 10 µM; Activity [7]: > 10 µM; Activity [8]: > 10 µM; Activity [9]: > 10 µM; fraction unbound [10]: 0.23; Activity [11]: > 10 µM; Stability (Plasma [12]): Stable; inhibition (INH) (Cytochrome P450 2D6): Active; Activity [13]: > 10 µM; fraction unbound [14]: 0.21; Activity [15]: > 10 µM; Activity [16]: > 10 µM; Activity [17]: > 10 µM; inhibition (INH) (Cytochrome P450 2C9): Active; inhibition (INH) (Cytochrome P450 3A4): Active; Activity [18]: > 10 µM; IC50 (Cytochrome P450 1A2): 6.2 µM
5 | CC1(C)CCn2nc(COc3ccccc3)cc2C1O (stereo not drawn) | 60 | 4410 | –
6 | CC1(C)CCn2nc(COc3ccccc3)cc2C1NCc1ccccc1 (stereo not drawn) | 65 | 3620 | –
7 | Clc1ccc(CNC2CCCn3nc(COc4ccccc4)cc32)cc1 (stereo not drawn) | 65 | 637 | –
8 | c1ccc(OCc2cc3n(n2)CCCC3NC2CC2)cc1 (stereo not drawn) | 50 | 1800 | –
9 | CC1CCn2nc(COc3ccccc3)cc2C1=O (stereo not drawn) | 76 | 285 | –
10 | O=C1c2cc(COc3ccccc3)nn2CCC1(Cc1ccccc1)Cc1ccccc1 | 37 | > 10000 | –
11 | O=C1CCCc2nc(COc3ccccc3)sc21 | 65 | 441 | –
12 | CN(Cc1ccccc1)C1CCCn2nc(COc3ccccc3)cc21 (stereo not drawn) | 71 | 686 | –
13 | CC1(c2ccc(F)cc2)CCn2nc(COc3ccccc3)cc2C1=O (stereo not drawn) | 58 | 228 | –
14 | OC1CCCn2nc(COc3ccccc3)cc21 (stereo not drawn) | 47 | 2010 | –
15 | O=C1c2cc(COc3ccccc3)nn2CCC1c1ccc(F)cc1 (stereo not drawn) | 66 | 35 | fraction unbound [10]: 0.008; fraction unbound [14]: 0.032
16 | c1ccc(OCc2cc3n(n2)CCCC3OCC2CC2)cc1 (stereo not drawn) | 43 | 2520 | –
17 | CC(C)N1CCN(C2CCCn3nc(COc4ccccc4)cc32)CC1 (stereo not drawn) | 71 | 870 | –
18 | O=C1CCCn2nc(OCc3ccccc3)cc21 | – | – | Activity [19]: inactive
19 | c1ccc(OCc2cc3n(n2)CCCC3NCc2ccncc2)cc1 (stereo not drawn) | 68 | 2570 | –
20 | c1ccc(CNC2CCCn3nc(COc4ccccc4)cc32)cc1 (stereo not drawn) | 74 | 632 | Fu (Plasma [20]): 0.02%; Fu (Plasma [21]): 0.03%
21 | O=C1c2cc(COc3ccccc3)nn2CCC12CCCC2 | 60 | 48 | –

Row | Compound | Activity [1] [%] | EC50 [2] [nM] | other results
22 | NC1CCCn2nc(COc3ccccc3)cc21 (stereo not drawn) | 45 | > 10000 | –
23 | Fc1ccc(CNC2CCCn3nc(COc4ccccc4)cc32)cc1 (stereo not drawn) | 69 | 316 | –
24 | CC1(C)CCn2nc(COc3ccccc3)cc2C1=O | 70 | 86 | fraction unbound [10]: 0.1; fraction unbound [14]: 0.07; IC50 (Cytochrome P450 1A2): 7.3 µM
25 | O=C1c2cc(OCc3ccccc3)nn2CCC1c1ccc(F)cc1 (stereo not drawn) | 48 | 95 | –
26 | CC1(C)CCn2nc(OCc3ccccc3)cc2C1=O | 56 | 228 | –
27 | c1ccc(NC2CCCn3nc(COc4ccccc4)cc32)cc1 (stereo not drawn) | 62 | 269 | –
28 | CC1(C)CCn2nc(COc3ccccc3)cc2C1OCc1ccccc1 (stereo not drawn) | 64 | 2320 | –
29 | COc1ccccc1C1CCn2nc(COc3ccccc3)cc2C1=O (stereo not drawn) | 68 | 43 | –
30 | OC1(c2ccccc2)CCCn2nc(COc3ccccc3)cc21 (stereo not drawn) | 49 | 1200 | –
31 | FC1(F)CCCn2nc(COc3ccccc3)cc21 | 52 | 625 | –
32 | CCCCC1(O)CCCn2nc(COc3ccccc3)cc21 (stereo not drawn) | 44 | 1820 | –
33 | COc1ccc(CNC2CCCn3nc(COc4ccccc4)cc32)cc1 (stereo not drawn) | 60 | 290 | –
34 | COC1CCCn2nc(COc3ccccc3)cc21 (stereo not drawn) | 43 | 2910 | –
35 | CC1CCn2nc(COc3ccccc3)cc2C1(C)O (stereo not drawn) | 39 | 1680 | –
36 | c1ccc(OCc2cc3n(n2)CCCC3N2CCOCC2)cc1 (stereo not drawn) | 52 | 2360 | –
37 | COC1c2cc(COc3ccccc3)nn2CCC1(C)C (stereo not drawn) | 75 | 796 | –
38 | OC1(C(F)(F)F)CCCn2nc(COc3ccccc3)cc21 (stereo not drawn) | 54 | 3780 | –
39 | c1ccc(OCc2cc3n(n2)CCCC3NCc2cccnc2)cc1 (stereo not drawn) | 59 | 2840 | –
40 | COc1ccccc1C1(C)CCn2nc(COc3ccccc3)cc2C1=O (stereo not drawn) | 52 | 654 | –
41 | c1ccc(COC2CCCn3nc(COc4ccccc4)cc32)cc1 (stereo not drawn) | 70 | 989 | –
